Data published in patent US7879848B2, “Dipeptidyl Peptidase-IV inhibiting compounds, method of preparing the same, and pharmaceutical compositions containing the same as an active agent” (LG Life Sciences, Ltd., priority 2005, dated 2011).

biological target: T1, Dipeptidyl Peptidase-IV (DPP-IV) (Homo sapiens, UniProt P27487); assay: Measurement of DPP-IV Activity-Inhibiting Ability (fluorescent substrate Ac-Gly-Pro-AFC); type: biochemical; conditions: 25° C., 50 mmol HEPES (pH 7.4), DP-IV 7.1 nM, enzyme reaction for 1 hour
T1 construct: made in house
T1 sequence (P27487 whole entry): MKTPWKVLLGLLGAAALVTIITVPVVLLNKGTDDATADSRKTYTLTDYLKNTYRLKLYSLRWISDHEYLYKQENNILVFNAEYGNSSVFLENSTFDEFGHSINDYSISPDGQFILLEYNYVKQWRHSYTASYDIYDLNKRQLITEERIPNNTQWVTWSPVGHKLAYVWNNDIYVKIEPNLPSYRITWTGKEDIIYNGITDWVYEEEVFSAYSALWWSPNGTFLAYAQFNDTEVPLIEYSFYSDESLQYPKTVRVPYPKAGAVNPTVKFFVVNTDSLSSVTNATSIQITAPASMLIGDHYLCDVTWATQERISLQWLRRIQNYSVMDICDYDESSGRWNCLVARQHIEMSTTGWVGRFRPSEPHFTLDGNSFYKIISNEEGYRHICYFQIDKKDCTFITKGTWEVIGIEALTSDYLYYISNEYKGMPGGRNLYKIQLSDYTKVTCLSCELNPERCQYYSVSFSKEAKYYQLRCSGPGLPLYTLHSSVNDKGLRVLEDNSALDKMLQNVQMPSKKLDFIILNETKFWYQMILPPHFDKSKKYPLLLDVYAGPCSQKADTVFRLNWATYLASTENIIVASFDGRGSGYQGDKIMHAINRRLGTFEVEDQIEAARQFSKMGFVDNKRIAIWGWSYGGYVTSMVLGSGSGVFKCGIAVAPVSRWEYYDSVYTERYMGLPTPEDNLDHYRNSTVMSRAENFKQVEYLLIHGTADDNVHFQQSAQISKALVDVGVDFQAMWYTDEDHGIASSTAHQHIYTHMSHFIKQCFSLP
Excerpt: Dipeptidyl Peptidase-IV (DPP-IV), known as serine protease, was obtained by a modification of the known method (Tanaka T. et al, Proc. Natl. Acad. Sci. USA, (1994) 91, 3082-3086), which comprises cloning, purification by use of Baculo-Virus and activation steps. DPP-IV was used to test the pharmaceutical efficacy of candidate inhibitors as follows. The cloned DP-IV was expressed in Baculo-Virus, which was purified by nickel column and then subjected to dialysis. The inhibitors synthesized in Examples were tested to determine the binding activity there of using a fluorescent substrate, Ac-Gly-Pro-AFC. Enzyme reactions were conducted for various concentrations of inhibitors, using 100 µM Ac-Gly-Pro-AFC at 25° C. in a buffer solution containing 50 mmol HEPES (pH 7.4), with the concentration of DP-IV being 7.1 nM. […] As the fluorescent spectrometer, Spectra MAX GeminiXS fluorescent spectrometer from Molecular Device Co. was used and the excitation frequency and emission frequency were set to 400 nm and 505 nm, respectively.

Row | SMILES | IC50 [µM]
1 | N[C@@H](CC(=O)N1CCn2c(nnc2C(F)(F)F)C1)CN1CCCC(F)C1=O (stereo partly drawn) [Ex. 7, 1-[2S-amino-4-oxo-4-(3-trifluoromethyl-5,6-dihydro-8H-[1,2,4]triazolo[4,3-a]pyrazin-7-yl)-butyl]-3-fluoro-piperidin-2-one] | > 10
2 | N[C@@H](CC(=O)N1CCn2c(nnc2C(F)(F)F)C1)CN1CCC(F)C1=O (stereo partly drawn) [Ex. 5, 1-[2S-amino-4-oxo-4-(3-trifluoromethyl-5,6-dihydro-8H-[1,2,4]triazolo[4,3-a]pyrazin-7-yl)-butyl]-3-fluoro-pyrrolidin-2-one] | > 10
3 | C[C@H]1CN(C[C@@H](N)CC(=O)N2CCc3c(cccc3C(F)(F)F)C2)C(=O)CO1 [Ex. 29, (6S)-4-{(2S)-2-amino-4-oxo-4-[5-(trifluoromethyl)-3,4-dihydroisoquinolin-2(1H)-yl]butyl}-6-methylmorpholine-3-one] | 0.175
4 | C[C@H]1CN(C[C@@H](N)CC(=O)N2CCc3c(nc(-c4cccc(F)c4)nc3C(F)(F)F)C2)C(=O)CO1 [Ex. 33] | 0.17
5 | N[C@@H](CC(=O)N1CCn2c(nnc2C(F)(F)F)C1)CN1CC(C(F)(F)F)CCC1=O (stereo partly drawn) [Ex. 15, 1-[2S-amino-4-oxo-4-(3-trifluoromethyl-5,6-dihydro-8H-[1,2,4]triazolo[4,3-a]pyrazin-7-yl)-butyl]-5-trifluoromethyl-piperidin-2-one] | 2.5
6 | CC1=CC(=O)N(C[C@@H](N)CC(=O)N2CCc3c(nc(C(F)(F)F)nc3C(F)(F)F)C2)C1 [Ex. 103, 1-{(2S)-2-amino-4-[2,4-bis(trifluoromethyl)-5,8-dihydropyrido[3,4-d]pyrimidin-7(6H)-yl]-4-oxobutyl}-4-methyl-1,5-dihydro-2H-pyrrol-2-one] | 0.074
7 | CC1CC(=O)N(C[C@@H](N)CC(=O)N2CCc3c(nc(C(F)(F)F)nc3C(F)(F)F)C2)C1 (stereo partly drawn) [Ex. 105, 1-{(2S)-2-amino-4-[2,4-bis(trifluoromethyl)-5,8-dihydropyrido[3,4-d]pyrimidin-7(6H)-yl]-4-oxobutyl}-4-methyloxopyrrolidin-2-one] | 0.059
8 | C[C@H]1CN(C[C@@H](N)CC(=O)N2CCc3c(nc(C(F)(F)C(F)(F)F)nc3C(F)(F)F)C2)C(=O)CO1 [Ex. 97, (6S)-4-{(2S)-2-amino-4-oxo-4-[2-(pentafluoroethyl)-4-(trifluoromethyl)-5,8-dihydropyrido[3,4-d]pyrimidin-7(6H)-yl]butyl}-6-methylmorpholine-3-one] | 0.057
9 | CC1CN(C[C@@H](N)CC(=O)N2CCn3c(nnc3C(F)(F)F)C2)C(=O)O1 (stereo partly drawn) [Ex. 2, 3-[2S-amino-4-oxo-4-(3-trifluoromethyl-5,6-dihydro-8H-[1,2,4]triazolo[4,3-a]pyrazin-7-yl)-butyl]-5-methyl-oxazolidin-2-one] | 0.95
10 | CC1=CC(=O)N(C[C@@H](N)CC(=O)N2CCn3c(nnc3C(F)(F)F)C2)C1 [Ex. 9, 1-[2S-amino-4-oxo-4-(3-trifluoromethyl-5,6-dihydro-8H-[1,2,4]triazolo[4,3-a]pyrazin-7-yl)-butyl]-4-methyl-1,5-dihydro-pyrrol-2-one] | 0.201
11 | N[C@@H](CC(=O)N1CCc2c(cccc2C(F)(F)F)C1)CN1CC(F)(F)CCC1=O [Ex. 28, 1-{(2S)-2-amino-4-oxo-4-[5-(trifluoromethyl)-3,4-dihydroisoquinolin-2(1H)-yl]butyl}5,5-difluoropiperidin-2-one] | 1.16
12 | CC1CN(C[C@@H](N)CC(=O)N2CCn3c(nnc3C(F)(F)F)C2)C(=O)CS1 (stereo partly drawn) [Ex. 94, 4-{(2S)-2-amino-4-oxo-4-[3-(trifluoromethyl)-5,6-dihydro[1,2,4]triazolo[4,3-a]pyrazin-7(8H)-yl]butyl}-6-methylthiomorpholin-3-one] | 0.238
13 | C[C@H]1CCC(=O)N(C[C@@H](N)CC(=O)N2CCn3c(nnc3C(F)(F)F)C2)C1 [Ex. 79, (5S)-1-{(2S)-2-amino-4-oxo-4-[3-(trifluoromethyl)-5,6-dihydro[1,2,4]triazolo[4,3-a]pyrazin-7(8H)-yl]butyl}-5-methylpiperidin-2-one] | 0.385
14 | N[C@@H](CC(=O)N1CCn2c(nnc2C(F)(F)C(F)(F)F)C1)CN1CC(F)(F)CCC1=O [Ex. 89, 1-{(2S)-2-amino-4-oxo-4-[3-(pentafluoroethyl)-5,6-dihydro[1,2,4]triazolo[4,3-a]pyrazin-7(8H)-yl]butyl}-5,5-difluoropiperidin-2-one] | 0.214
15 | N[C@@H](CC(=O)N1CCc2c(C(F)(F)F)n[nH]c2C1)CN1CCCCC1=O [Ex. 20, 1-[2S-amino-4-oxo-4-(3-trifluoromethyl-1,4,5,7-tetrahydro-pyrazolo[3,4-c]pyridin-6-yl)-butyl]-piperidin-2-one] | 0.268
16 | N[C@@H](CC(=O)N1CCn2c(nnc2C(F)(F)F)C1)CN1CCOC1=O [Ex. 1, 3-[2S-amino-4-oxo-4-(3-trifluoromethyl-5,6-dihydro-8H-[1,2,4]triazolo[4,3-a]pyrazin-7-yl)-butyl]-oxazolidin-2-one] | > 10

Now those with a lower IC50, led by results:

Row | IC50 [µM] | SMILES
17 | 0.054 | N[C@@H](CC(=O)N1CCc2c(nc(C(F)(F)F)nc2C(F)(F)F)C1)CN1CC(C(F)(F)F)CC1=O (stereo partly drawn) [Ex. 108, 1-{(2S)-2-amino-4-[2,4-bis(trifluoromethyl)-5,8-dihydropyrido[3,4-d]pyrimidin-7(6H)-yl]-4-oxobutyl}-4-(trifluoromethyl)pyrrolidin-2-one]
18 | 0.051 | N[C@@H](CC(=O)N1CCc2c(nc(-c3ccc(F)c(F)c3)nc2C(F)(F)F)C1)CN1CC(F)(F)CCC1=O [Ex. 35, 1-{(2S)-2-amino-4-[2-(3,4-difluorophenyl)-4-(trifluoromethyl)-5,8-dihydropyrido[3,4-d]pyrimidin-7(6H)-yl]-4-oxobutyl}-5,5-difluoropiperidin-2-one]
19 | 0.048 | CC(C)(C)c1nc2c(c(C(F)(F)F)n1)CCN(C(=O)C[C@H](N)CN1CC(F)(F)CCC1=O)C2 [Ex. 92, 1-{(2S)-2-amino-4-[2-t-butyl-4-(trifluoromethyl)-5,8-dihydropyrido[3,4-d]pyrimidin-7(6H)-yl]-4-oxobutyl}-5,5-difluoropiperidin-2-one]
20 | 0.036 | C[C@@H]1CCC(=O)N(C[C@@H](N)CC(=O)N2CCc3c(nc(-c4ccc(F)c(F)c4)nc3C(F)(F)F)C2)C1 [Ex. 37, (5R)-1-{(2S)-2-amino-4-[2-(3,4-difluorophenyl)-4-(trifluoromethyl)-5,8-dihydropyrido[3,4-d]pyrimidin-7(6H)-yl]-4-oxobutyl}-5-methylpiperidin-2-one]
21 | 0.032 | C[C@@H]1CCC(=O)N(C[C@@H](N)CC(=O)N2CCc3c(nc(-c4cccs4)nc3C(F)(F)F)C2)C1 [Ex. 62, (5R)-1-{(2S)-2-amino-4-oxo-4-[2-(2-thienyl)-4-(trifluoromethyl)-5,8-dihydropyrido[3,4-d]pyrimidin-7(6H)-yl]butyl}-5-methylpiperidin-2-one]
22 | 0.025 | C[C@H]1CN(C[C@@H](N)CC(=O)N2CCc3c(nc(-c4ccc(F)cc4)nc3C(F)(F)F)C2)C(=O)CO1 [Ex. 31]
23 | 0.023 | CCc1nc2c(c(C(F)(F)F)n1)CCN(C(=O)C[C@H](N)CN1CC(F)(F)CCC1=O)C2 [Ex. 72, 1-{(2S)-2-amino-4-[2-ethyl-4-(trifluoromethyl)-5,8-dihydropyrido[3,4-d]pyrimidin-7(6H)-yl]-4-oxobutyl}-5,5-difluoropiperidin-2-one]
24 | 0.02 | C[C@@H]1CCC(=O)N(C[C@@H](N)CC(=O)N2CCc3c(nc(C4CCCC4)nc3C(F)(F)F)C2)C1 [Ex. 38, (5R)-1-{(2S)-2-amino-4-[2-cyclopentyl-4-(trifluoromethyl)-5,8-dihydropyrido[3,4-d]pyrimidin-7(6H)-yl]-4-oxobutyl}-5-methylpiperidin-2-one]
25 | 0.018 | COCCc1nc2c(c(C(F)(F)F)n1)CCN(C(=O)C[C@H](N)CN1C[C@H](C)CCC1=O)C2 [Ex. 52, (5R)-1-{(2S)-2-amino-4-[2-(2-methoxyethyl)-4-(trifluoromethyl)-5,8-dihydropyrido[3,4-d]pyrimidin-7(6H)-yl]-4-oxobutyl}-5-methylpiperidin-2-one]
26 | 0.014 | C[C@H]1CN(C[C@@H](N)CC(=O)N2CCc3sc(-c4ccc(C(F)(F)F)cc4)nc3C2)C(=O)CO1 [Ex. 42, (6S)-4-[(2S)-2-amino-4-oxo-4-{2-[4-(trifluoromethyl)phenyl]-6,7-dihydro[1,3]thiazolo[4,5,c]pyridin-5(4H)-yl}butyl]-6-methylmorpholine-3-one]
27 | 0.011 | C[C@@H]1CCC(=O)N(C[C@@H](N)CC(=O)N2CCc3c(nc(-c4ccncc4)nc3C(F)(F)F)C2)C1 [Ex. 56, (5R)-1-{(2S)-2-amino-4-oxo-4-[2-pyridin-4-yl-4-(trifluoromethyl)-5,8-dihydropyrido[3,4-d]pyrimidin-7(6H)-yl]butyl}-5-methylpiperidin-2-one]
28 | 0.009 | N[C@@H](CC(=O)N1CCc2sc(-c3ccc(C(F)(F)F)cc3)nc2C1)CN1CC(F)(F)CCC1=O [Ex. 43, 1-[(2S)-2-amino-4-oxo-4-{2-[4-(trifluoromethyl)phenyl]-6,7-dihydro[1,3]thiazolo[4,5,c]pyridin-5(4H)-yl}butyl]-5,5-difluoropiperidin-2-one]
29 | 0.005 | C[C@@H]1CCC(=O)N(C[C@@H](N)CC(=O)N2CCc3c(nc(C4CC4)nc3C(F)(F)F)C2)C1 [Ex. 26, 1-{(2S)-2-amino-4-[2-cyclopropyl-4-(trifluoromethyl)-5,8-dihydropyrido[3,4-d]pyrimidin-7(6H)-yl]-4-oxobutyl}-5-methylpiperidin-2-one]
